Laboratory results from patent publication US6787531B1, “Pharmaceutical composition for use as a contraceptive” (Schering AG, priority 1999, dated 2004).

What was measured:
[1] = Solubility and chemical stability of the active substances; format: physicochemical; settings: for solubility: water and aqueous buffers at various pH values
From the text: To ensure good bioavailability of the compound, it is therefore advantageously provided in a form that promotes rapid dissolution thereof.
This has the added advantage of facilitating a more homogenous distribution of the ethinylestradiol throughout the composition which might otherwise be difficult to obtain because ethinylestradiol is incorporated in extremely small amounts. When ethinylestradiol is provided in micronized form, it preferably has the following particle size distribution as determined under the microscope: 100% of the particles have a diameter of ≦15.0 μm, 99% of the particles have a diameter of ≦12.5 μm, 95% of the particles have a diameter of ≦10.0 μm, and 50% of the particles have a diameter of ≦3.0 μm. Furthermore, no particle is larger than 20 μm, and […] have a diameter of ≧15 μm and ≦20 μm.

[2] = Relative bioavailability of drospirenone and ethinylestradiol from tablets versus oral suspension, open-label crossover study; format: in vivo; settings: female, human, tablet 3 mg drospirenone + 0.03 mg ethinylestradiol, healthy women, serum concentrations, read-out: relative bioavailability from the tablets compared to the oral suspension
Method: 42 healthy women between 18 and 35 years of age were included in an open-label crossover study after their informed consent had been obtained. The aim of the study was to investigate the relative bioavailability of drospirenone and ethinylestradiol from a tablet formulation containing 3 mg drospirenone and 0.03 mg ethinylestradiol with reference to an oral suspension containing 6 mg of drospirenone and 0.06 mg ethinylestradiol per vial.
The bioavailability was determined using serum concentrations of each active agent as parameters. […] It was therefore concluded that both drospirenone and ethinylestradiol are completely released from the tablets in vivo.

[3] = Absolute bioavailability of drospirenone after oral administration; settings: female, human, in vivo
[4] = Dissolution of drospirenone from tablets, USP XXIII Paddle Method; format: physicochemical; settings: 900 ml water, 37° C., 50 rpm
Method: Instead of providing the drospirenone in micronized form, it is possible to dissolve it in a suitable solvent, e.g. methanol or ethyl acetate, and spray it onto the surface of inert carrier particles followed by incorporation of the particles containing drospirenone on their surface in the composition.
The rate of dissolution of drospirenone from the tablets prepared in Example 1 is determined by the USP XXIII Paddle Method using a USP Dissolution Test Apparatus 2 including 6 covered glass vessels and 6 paddles. Tablets are placed in 900 ml water at a temperature of 37° C. (±0.5° C.) and stirred at 50 rpm.

In the case of `C#C[C@]1(O)CC[C@H]2[C@@H]3CCc4cc(O)ccc4[C@H]3CC[C@@]21C` [ethinylestradiol, 17α-ethinylestradiol], the solubility [1] is reported as “sparingly soluble” and the bioavailability [2] is reported as 117%.
In the case of `C[C@]12CCC(=O)C=C1[C@@H]1C[C@@H]1[C@H]1[C@@H]3[C@@H]4C[C@@H]4[C@@]4(CCC(=O)O4)[C@@]3(C)CC[C@@H]12` [drospirenone, 6β,7β;15β,16β-dimethylene-3-oxo-17α-pregn-4-ene-21,17-carbolactone], the bioavailability ([3]; oral administration of 2 mg drospirenone, 8 young healthy women) is reported as 76%, the bioavailability ([3]; oral microcrystalline suspension containing 3.13 mg drospirenone, 6 postmenopausal women) is reported as 85% and the “stability under acid conditions” value ([1]; acid conditions) is reported as “rearranged to an inactive isomer”. For the same compound, the “stability under alkaline conditions” value ([1]; alkaline conditions) was “hydrolysed”, the solubility [1] was “sparingly soluble” and the bioavailability [2] was 107%. The “drospirenone dissolved within 30 minutes” value ([4]; film-coated tablets, FIG. 3) was “more than 70%” and the “drospirenone dissolved within 30 minutes” value ([4]; tablet cores, FIG. 2) was “more than 70%”.
